ChEMBL document CHEMBL5244256, “Selenium as an interesting option for the treatment of Chagas disease: A review” (Eur J Med Chem, 2020)

Assays:
[1] = test system: Trypanosoma cruzi; assay: Trypanocidal activity against Trypanosoma cruzi Y strain amastigotes measured after 48 hrs; assay type: functional, organism-based
[2] = Selectivity ratio of IC50 for cytotoxicity against mouse J774.1 cells to IC50 for Trypanocidal activity against Trypanosoma cruzi Tulahuen 2 strain; assay type: toxicity, cell-based; conditions: read-out: Ratio IC50
[3] = test system: Trypanosoma cruzi; assay: Trypanocidal activity against Trypanosoma cruzi Y strain; assay type: functional, organism-based
[4] = Selectivity ratio of IC50 for cytotoxicity against human MRC5 cells to IC50 for Trypanocidal activity against Trypanosoma cruzi Tulahuen CL2 strain; assay type: toxicity, cell-based; conditions: read-out: Ratio IC50
[5] = test system: Trypanosoma cruzi; assay: Potency index, ratio of test compound IC50 to Benznidazole IC50 for Trypanocidal activity against Trypanosoma cruzi Y strain measured after 24 hrs; assay type: functional
[6] = Selectivity ratio of IC50 for cytotoxicity against human THP-1 cells to IC50 for Antileishmanial activity against Leishmania infantum MCAN/ES/89/IPZ229/1/89 amastigotes; assay type: toxicity, cell-based; conditions: read-out: Ratio IC50
[7] = test system: Leishmania infantum; assay: Antileishmanial activity against Leishmania infantum MCAN/ES/89/IPZ229/1/89 amastigotes assessed as reduction in parasite growth incubated for 24 hrs by flow cytometry analysis; assay type: functional, organism-based; conditions: MCAN/ES/89/IPZ229/1/89, 24 h
[8] = test system: Leishmania infantum; assay: Antileishmanial activity against Leishmania infantum MCAN/ES/89/IPZ229/1/89 promastigotes assessed as reduction in parasite growth incubated for 24 hrs by flow cytometry analysis; assay type: functional, organism-based; conditions: MCAN/ES/89/IPZ229/1/89, 24 h
[9] = test system: Trypanosoma cruzi; assay: Trypanocidal activity against Trypanosoma cruzi Y strain epimastigotes measured after 72 hrs; assay type: functional, organism-based
[10] = test system: Trypanosoma cruzi; assay: Trypanocidal activity against Trypanosoma cruzi Y strain measured after 24 hrs; assay type: functional, organism-based

Compound `CCNC(=O)SCCOc1ccc(Oc2ccccc2)cc1` has an IC50 [1] of 7.88 µM.
For `O=C(CS/C(C(=O)c1ccc2ccccc2c1)=C1\C=C(c2ccc(O)cc2)SS1)c1ccc2ccccc2c1`, the selectivity ratio at 48 h [2] was 12.8.
In the case of `O=C(Cn1ccnc1[N+](=O)[O-])NCc1ccccc1` [BENZNIDAZOLE], the IC50 [3] is reported as 104 µM.
Work on `CCOc1cccc2sc(N(Cc3cccnc3)C(=O)C3CCCCC3)nc12` yielded a selectivity ratio [4] of over 200.
`CC1(C)OC2=C(CC1[Se]c1cccc(Br)c1)C(=O)C(=O)c1ccccc12` (stereo not given) gave an IC50 [3] of 477 µM.
With `CC1(C)OC2=C(CC1[Se]c1ccc(C(F)(F)F)cc1)C(=O)C(=O)c1ccccc12` (stereo not given) the “Ratio IC50” value [5] was 2 and the IC50 [3] was 54.9 µM.
Compound `C[Se]/C(=N/C(=O)c1cccnc1)NC(=O)c1cccnc1` has a selectivity ratio [6] of 4, an IC50 [7] of 3.03 µM and an IC50 [8] of 3.74 µM.
Compound `Cc1cccc([Se]C2CC3=C(OC2(C)C)c2ccccc2C(=O)C3=O)c1` (stereo not given) has an IC50 [3] of 1680 µM.
In the case of `COc1cccc([Se]C2CC3=C(OC2(C)C)c2ccccc2C(=O)C3=O)c1` (stereo not given), the IC50 [3] is reported as 208 µM.
`CC(C)=CCC/C(C)=C/COc1ccc(CCN(C)C(=O)/C=C/S(C)(=O)=O)cc1` showed an IC50 [9] of 1.23 µM.
Work on `CC1(C)OC2=C(CC1[Se]c1cccc(Cl)c1)C(=O)C(=O)c1ccccc12` (stereo not given) yielded an IC50 [3] of 360 µM.
Work on `COc1ccccc1/C=C/C=N/NC(N)=S` yielded an IC50 [10] of 0.4 µM.
